Results reported in ChEMBL document CHEMBL1128753, “Synthesis and bioactivity of photolabile sirolimus (rapamycin) analogs” (Bioorg Med Chem Lett, 1995).

Key:
T-cell = assay: Tested for inhibition of T cell proliferation in the co-mitogen stimulated proliferation assay; assay type: functional, cell-based; details: Homo sapiens
Mus musculus = assay: Mean Survival time of the graft was evaluated in murine skin allograft transplantation assay upon intraperitoneal administration of 4 mg/kg dose; assay type: functional

| SMILES | IC50 (T-cell) [nM] | MST (Mus musculus) [days] |
| --- | --- | --- |
| CO[C@H]1C[C@@H]2CC[C@@H](C)[C@@](O)(O2)C(=O)C(=O)N2CCCC[C@H]2C(=O)O[C@H]([C@H](C)C[C@@H]2CC[C@@H](O)[C@H](OC)C2)CC(=O)[C@H](C)/C=C(\C)[C@@H](OC(=O)CCCCCNc2ccc(N=[N+]=[N-])cc2[N+](=O)[O-])[C@@H](OC)C(=O)[C@H](C)C[C@H](C)/C=C/C=C/C=C/1C | 7.8 |  |
| CO[C@H]1C[C@@H]2CC[C@@H](C)[C@@](O)(O2)C(=O)C(=O)N2CCCC[C@H]2C(=O)O[C@H]([C@H](C)C[C@@H]2CC[C@@H](OC(=O)CCCCCCCNc3ccc(N=[N+]=[N-])cc3[N+](=O)[O-])[C@H](OC)C2)CC(=O)[C@H](C)/C=C(\C)[C@@H](O)[C@@H](OC)C(=O)[C@H](C)C[C@H](C)/C=C/C=C/C=C/1C | 10.2 |  |
| CO[C@H]1C[C@@H]2CC[C@@H](C)[C@@](O)(O2)C(=O)C(=O)N2CCCC[C@H]2C(=O)O[C@H]([C@H](C)C[C@@H]2CC[C@@H](OC(=O)Cc3ccc(N=[N+]=[N-])cc3)[C@H](OC)C2)CC(=O)[C@H](C)/C=C(\C)[C@@H](O)[C@@H](OC)C(=O)[C@H](C)C[C@H](C)/C=C/C=C/C=C/1C | 1 | 10.7 |
| CO[C@H]1C[C@@H]2CC[C@@H](C)[C@@](O)(O2)C(=O)C(=O)N2CCCC[C@H]2C(=O)O[C@H]([C@H](C)C[C@@H]2CC[C@@H](OC(=O)Cc3ccc(N=[N+]=[N-])c(I)c3)[C@H](OC)C2)CC(=O)[C@H](C)/C=C(\C)[C@@H](O)[C@@H](OC)C(=O)[C@H](C)C[C@H](C)/C=C/C=C/C=C/1C | 3 | 12.7 |
| CO[C@H]1C[C@@H]2CC[C@@H](C)[C@@](O)(O2)C(=O)C(=O)N2CCCC[C@H]2C(=O)O[C@H]([C@H](C)C[C@@H]2CC[C@@H](O)[C@H](OC)C2)CC(=O)[C@H](C)/C=C(\C)[C@@H](OC(=O)Cc2ccc(N=[N+]=[N-])cc2)[C@@H](OC)C(=O)[C@H](C)C[C@H](C)/C=C/C=C/C=C/1C | 5.8 |  |
| CO[C@H]1C[C@@H]2CC[C@@H](C)[C@@](O)(O2)C(=O)C(=O)N2CCCC[C@H]2C(=O)O[C@H]([C@H](C)C[C@@H]2CC[C@@H](O)[C@H](OC)C2)CC(=O)[C@H](C)/C=C(\C)[C@@H](OC(=O)CCCCCCCNc2ccc(N=[N+]=[N-])cc2[N+](=O)[O-])[C@@H](OC)C(=O)[C@H](C)C[C@H](C)/C=C/C=C/C=C/1C | 10.5 |  |
| CO[C@H]1C[C@@H]2CC[C@@H](C)[C@@](O)(O2)C(=O)C(=O)N2CCCC[C@H]2C(=O)O[C@H]([C@H](C)C[C@@H]2CC[C@@H](OC(=O)CCCCCNc3ccc(N=[N+]=[N-])cc3[N+](=O)[O-])[C@H](OC)C2)CC(=O)[C@H](C)/C=C(\C)[C@@H](O)[C@@H](OC)C(=O)[C@H](C)C[C@H](C)/C=C/C=C/C=C/1C | 2.5 |  |
| CO[C@H]1C[C@@H]2CC[C@@H](C)[C@@](O)(O2)C(=O)C(=O)N2CCCC[C@H]2C(=O)O[C@H]([C@H](C)C[C@@H]2CC[C@@H](O)[C@H](OC)C2)CC(=O)[C@H](C)/C=C(\C)[C@@H](O)[C@@H](OC)C(=O)[C@H](C)C[C@H](C)/C=C/C=C/C=C/1C [SIROLIMUS] | 9.8 | 12.01 |
